Data as given in US20240041877A1, “DOSAGE REGIME AND METHOD FOR TREATING PULMONARY ARTERIAL HYPERTENSION” (Altavant Sciences GmbH, priority 2019, published 2024).

Experiment: Study KAR5585-101 Part 1 (SAD): plasma pharmacokinetics after a single oral dose of KAR5585, fasting and fed (incl. dose proportionality and food effect)
Conditions: for half-life / AUC / AUC(0-inf) / Cmax / Vd/F / Tmax: human, po; for AUC: AUC0-tau; for Vd/F: Vz/F; for Tmax: Median
[1] = 100 mg KAR5585 single oral, fasted, Cohort 1, Geo. Mean
[2] = 100 mg KAR5585 single oral, fasted, Cohort 1, Mean
[3] = 200 mg KAR5585 single oral, fasted, Cohort 2, Geo. Mean
[4] = 200 mg KAR5585 single oral, fasted, Cohort 2, Mean
[5] = 400 mg KAR5585 single oral, fasted, Cohort 3A, Geo. Mean
[6] = 400 mg KAR5585 single oral, fasted, Cohort 3A, Mean
[7] = 400 mg KAR5585 single oral, fed, Cohort 3B, Geo. Mean
[8] = 400 mg KAR5585 single oral, fed, Cohort 3B, Mean
[9] = 700 mg KAR5585 single oral, fasted, Cohort 4, Geo. Mean
[10] = 700 mg KAR5585 single oral, fasted, Cohort 4, Mean
[11] = 1200 mg KAR5585 single oral, fasted, Cohort 5, Geo. Mean
[12] = 1200 mg KAR5585 single oral, fasted, Cohort 5, Mean
[13] = 2000 mg KAR5585 single oral, fasted, Cohort 6, Geo. Mean
[14] = 2000 mg KAR5585 single oral, fasted, Cohort 6, Mean
[15] = 100 to 2000 mg KAR5585 single oral dose, fasting, plasma analyte = label
[16] = plasma, 100 mg, 100 mg KAR5585 single oral, fasted, Cohort 1, Geo. Mean
[17] = plasma, 100 mg, 100 mg KAR5585 single oral, fasted, Cohort 1, Mean
[18] = plasma, 200 mg, 200 mg KAR5585 single oral, fasted, Cohort 2, Geo. Mean
[19] = plasma, 200 mg, 200 mg KAR5585 single oral, fasted, Cohort 2, Mean

For `CCOC(=O)[C@@H]1CC2(CCN(c3cc(O[C@H](c4ccc(Cl)cc4-c4ccccc4)C(F)(F)F)nc(N)n3)CC2)CN1` [KAR5585, (S)-ethyl 8-(2-amino-6-((R)-1-(5-chloro-[1,1′-biphenyl]-2-yl)-2,2,2-trifluoroethoxy)pyrimidin-4-yl)-2,8-diazaspiro[4.5]decane-3-carboxylate], which AUC0-24/D [1] is on record?
Its AUC0-24/D is 0.475 (hr*ng/ml)/mg.

And the C12 [1]?
Its C12 is “BLQ”.

What about the CL/F [1] of the same molecule?
Its CL/F is 2110 L/h.

And the Cmax/D [1]?
Its Cmax/D is 0.132 (ng/mL)/mg.

And the AUC0-24/D [2]?
Its AUC0-24/D is 0.496 (hr*ng/ml)/mg.

What about the C12 [2] of the same molecule?
Its C12 is “BLQ”.

What about the CL/F [2] of the same molecule?
Its CL/F is 2210 L/h.

What about the Cmax/D [2] of the same molecule?
The Cmax/D was 0.139 (ng/mL)/mg.

And the AUC0-24/D [3]?
Its AUC0-24/D is 0.467 (hr*ng/ml)/mg.

And the C12 [3]?
The C12 was “BLQ”.

What about the CL/F [3] of the same molecule?
The CL/F was 2100 L/h.

And the Cmax/D [3]?
The Cmax/D was 0.0875 (ng/mL)/mg.

What about the AUC0-24/D [4] of the same molecule?
The AUC0-24/D was 0.485 (hr*ng/ml)/mg.

What about the C12 [4] of the same molecule?
Its C12 is “BLQ”.

And the CL/F [4]?
The CL/F was 2220 L/h.

And the Cmax/D [4]?
The Cmax/D was 0.0961 (ng/mL)/mg.

And the AUC0-24/D [5]?
The AUC0-24/D was 0.707 (hr*ng/ml)/mg.

What about the CL/F [5] of the same molecule?
Its CL/F is 1390 L/h.

What about the Cmax/D [5] of the same molecule?
Its Cmax/D is 0.105 (ng/mL)/mg.

What about the AUC0-24/D [6] of the same molecule?
The AUC0-24/D was 0.742 (hr*ng/ml)/mg.

And the CL/F [6]?
The CL/F was 1480 L/h.

What about the Cmax/D [6] of the same molecule?
Its Cmax/D is 0.132 (ng/mL)/mg.

And the AUC0-24/D [7]?
The AUC0-24/D was 2.19 (hr*ng/ml)/mg.

And the CL/F [7]?
The CL/F was 443 L/h.

What about the Cmax/D [7] of the same molecule?
Its Cmax/D is 0.413 (ng/mL)/mg.

What about the AUC0-24/D [8] of the same molecule?
The AUC0-24/D was 2.21 (hr*ng/ml)/mg.

And the CL/F [8]?
Its CL/F is 449 L/h.

And the Cmax/D [8]?
Its Cmax/D is 0.422 (ng/mL)/mg.

What about the AUC0-24/D [9] of the same molecule?
Its AUC0-24/D is 0.584 (hr*ng/ml)/mg.

What about the CL/F [9] of the same molecule?
The CL/F was 1700 L/h.

And the Cmax/D [9]?
The Cmax/D was 0.136 (ng/mL)/mg.

What about the AUC0-24/D [10] of the same molecule?
The AUC0-24/D was 0.617 (hr*ng/ml)/mg.

What about the CL/F [10] of the same molecule?
The CL/F was 1810 L/h.

What about the Cmax/D [10] of the same molecule?
The Cmax/D was 0.142 (ng/mL)/mg.

And the AUC0-24/D [11]?
Its AUC0-24/D is 0.333 (hr*ng/ml)/mg.

What about the CL/F [11] of the same molecule?
Its CL/F is 2960 L/h.

What about the Cmax/D [11] of the same molecule?
The Cmax/D was 0.0568 (ng/mL)/mg.

And the AUC0-24/D [12]?
The AUC0-24/D was 0.378 (hr*ng/ml)/mg.

And the CL/F [12]?
Its CL/F is 3850 L/h.

What about the Cmax/D [12] of the same molecule?
Its Cmax/D is 0.0692 (ng/mL)/mg.

What about the AUC0-24/D [13] of the same molecule?
The AUC0-24/D was 0.348 (hr*ng/ml)/mg.

What about the CL/F [13] of the same molecule?
The CL/F was 3000 L/h.

What about the Cmax/D [13] of the same molecule?
Its Cmax/D is 0.0475 (ng/mL)/mg.

And the AUC0-24/D [14]?
The AUC0-24/D was 0.403 (hr*ng/ml)/mg.

What about the CL/F [14] of the same molecule?
The CL/F was 3820 L/h.

And the Cmax/D [14]?
Its Cmax/D is 0.0522 (ng/mL)/mg.

What about the “Dose proportionality power model, AUC0-12: Intercept estimate” value [15] of the same molecule?
Its value is 1.51.

And the “Dose proportionality power model, AUC0-inf: Intercept estimate” value [15]?
The value was 1.46.

What about the “Dose proportionality power model, AUC0-tau: Intercept estimate” value [15] of the same molecule?
Its value is 0.258.

And the “Dose proportionality power model, Cmax: Intercept estimate” value [15]?
The value was 0.534.

What about the half-life (in vivo, 200 mg) of the same molecule?
Its half-life is 3.17 h.

What about the AUC [16] of the same molecule?
The AUC was 27.4 ng·h/mL.

And the AUC [17]?
Its AUC is 35 ng·h/mL.

What about the AUC(0-inf) (plasma, 100 mg, AUC0-∞, 100 mg KAR5585 single oral, fasted, Cohort 1, Geo. Mean) of the same molecule?
Its AUC(0-inf) is 47.5 ng·h/mL.

And the AUC(0-inf) (plasma, 100 mg, AUC0-∞, 100 mg KAR5585 single oral, fasted, Cohort 1, Mean)?
Its AUC(0-inf) is 49.5 ng·h/mL.

What about the Cmax [16] of the same molecule?
Its Cmax is 13.2 ng/mL.

What about the Cmax [17] of the same molecule?
The Cmax was 13.9 ng/mL.

What about the Vd/F [16] of the same molecule?
The Vd/F was 5190 L.

And the Vd/F [17]?
The Vd/F was 5680 L.

And the half-life (plasma, 100 mg, t1 (t½, apparent terminal half-life), 100 mg KAR5585 single oral, fasted, Cohort 1, Geo. Mean)?
Its half-life is 1.71 h.

And the half-life (plasma, 100 mg, t1 (t½, apparent terminal half-life), 100 mg KAR5585 single oral, fasted, Cohort 1, Mean)?
The half-life was 1.89 h.

And the Tmax (plasma, 100 mg, 100 mg KAR5585 single oral, fasted, Cohort 1)?
The Tmax was 1.5 h.

And the AUC [18]?
The AUC was 52 ng·h/mL.

What about the AUC [19] of the same molecule?
The AUC was 61.4 ng·h/mL.

And the AUC(0-inf) (plasma, 200 mg, AUC0-∞, 200 mg KAR5585 single oral, fasted, Cohort 2, Geo. Mean)?
Its AUC(0-inf) is 95.3 ng·h/mL.

What about the AUC(0-inf) (plasma, 200 mg, AUC0-∞, 200 mg KAR5585 single oral, fasted, Cohort 2, Mean) of the same molecule?
Its AUC(0-inf) is 99.5 ng·h/mL.

And the Cmax [18]?
The Cmax was 17.5 ng/mL.

What about the Cmax [19] of the same molecule?
The Cmax was 19.2 ng/mL.

And the Vd/F [18]?
Its Vd/F is 9610 L.

And the Vd/F [19]?
Its Vd/F is 10300 L.

And the half-life (plasma, 200 mg, t1 (t½, apparent terminal half-life), 200 mg KAR5585 single oral, fasted, Cohort 2, Mean)?
The half-life was 3.63 h.

What about the Tmax (plasma, 200 mg, 200 mg KAR5585 single oral, fasted, Cohort 2) of the same molecule?
Its Tmax is 1.78 h.

What about the AUC(0-inf) (plasma, 400 mg, AUC0-inf, Geometric Mean, Cohort 3A (Fasting), 400 mg KAR5585 single oral dose, fasting) of the same molecule?
Its AUC(0-inf) is 288 ng·h/mL.

And the AUC(0-inf) (plasma, 400 mg, AUC0-inf, Geometric Mean, Cohort 3B (Fed), 400 mg KAR5585 single oral dose, fed)?
The AUC(0-inf) was 903 ng·h/mL.

What about the AUC (plasma, 400 mg, 400 mg KAR5585 single oral, fasted, Cohort 3A, Geo. Mean) of the same molecule?
The AUC was 176 ng·h/mL.
